How the values were obtained:
NK-92 cells [1] = assay: Cytokine secretion of NK-92 monoculture (Luminex 200); type: cell-based; settings: for NK-92 secretion of T cell chemokine CCL5: FIG. 13A (A6); for NK-92 cell secretion of IFN-γ / NK-92 cell secretion of IL-10 / NK-92 cell secretion of granzyme B: monoculture, DHT for 72 h before treatment, supernatant
Method: The secretion profile was assessed in monoculture conditions without the PCa cell lines.
The medium was collected 24 hours after treatment and stored at −80° C. until readout. Samples were shipped to Brown University to run them in biological duplicate on a Luminex 200 Instrument (R&D LX200-XPON-RUO), which captures cytokines on magnetic antibody-coated beads and measures cytokine levels using a system based on the principles of flow cytometry (see https:/www.luminexcorp.com/luminex-100200/#overviewfor more information). A custom […] panel was split into 34-plex and 18-plex assays (R&D LXSAHM) and was run on the Luminex 200 instrument according to the manufacturer's protocol.

NK-92 cells [2] = assay: Flow cytometry of NK-92 activation markers CD69 and CD137; type: cell-based; settings: NK-92 monoculture, 48 h
Method: The surface expression of the NK cell activation markers CD69 and CD137 were also evaluated following the treatment of NK cell monocultures with ARi (FIG. 13D-E).
(§1) PCa cells were plated at a density of 3×10^5 cells per well of a 6-well plate and adhered overnight. […] After treatment, cells were trypsinized, stained, and incubated (Cell Staining Buffer SouthernBiotech #0225-01S) with the corresponding antibody for 45-60 min at 4° C. Viability dye was added with each run. NK-92 cells and patient-derived cells were stained similarly. Markers used for experiments included: Thermofisher HLA-E Monoclonal Antibody (3D12HLA-E), Alexa Fluor™ 488, eBioscience™, CD274 (PD-L1, B7-H1) Monoclonal Antibody (MIH1), eFluor™ 450, eBioscience™, Cell Signaling PD-1 (D4W2J) XPR Rabbit mAb, SYTOX™ Orange Dead Cell Stain, for flow cytometry, BioLegend APC anti-human CD159a (NKG2A) Antibody #375108, BioLegend APC anti-human CD69 Antibody #310909, BioLegend Alexa Fluor® 647 anti-human CD137 (4-1BB) [4B4-1] #309823. For staining of the patient-derived PBMCs and subsequent NK cell characterization, the following antibodies were used: BioLegend Anti-Perforin Mouse Monoclonal Antibody (PerCP Cy5.50, clone: dG9) #308113, BioLegend Anti-Granzyme B Mouse Monoclonal Antibody (FITC, clone: GB11) #515403, BioLegend Anti-CD56 Mouse Monoclonal Antibody (Alexa Fluor® 700, clone: 5.1H1) #362521, and BioLegend (PE anti-human CD45 Antibody) #304008.

22Rv1 cell line = assay: Flow cytometry of HLA-E / PD-L1 surface expression on 22Rv1; type: cell-based; settings: for HLA-E surface expression, mean fluorescence intensity (MFI): 22Rv1, enza 15 μM, daro 20 μM, 48 h; for surface levels of HLA-E / surface levels of PD-L1: Example 2, 22Rv1
Method: (§2) The effect of ARi on the NKG2A ligand, HLA-E, was investigated by flow cytometry on PCa cells treated with enza and daro.
as §1
(§3) The effect of androgen pathway inhibitors in the expression of HLA-E, a negative and key negative modulator of NK cell function, was also performed using Flow Cytometry. PD-L1 expression levels were also measured. In advance, The NK cell immune checkpoint inhibitor monalizumab (targeting NKG2A and its ligand, HLA-E) was also combined with ARi.

[3] = test system: PC tumors (PC3, 22Rv1 xenograft); assay: NK cell infiltration in subcutaneous PC tumors of treated mice; type: in vivo, NCr Nude mice; settings: oral, Daro 50 mg/kg/bid, Enza 30 mg/kg/bid, 4 weeks
Method: We conducted cell viability assays to investigate the effect of Enza and Daro on PC cells (LNCap, 22Rv1 [ARv7 mutation], DU145, PC3 [AR-]) and NK-92 cells. We performed co-culture experiments with PC and NK cells in a 1:1 ratio and analyzed immune cell-mediated tumor cell killing (ImageXpress Confocal HT). Cytokine profiling (Luminex 200) of culture supernatants was performed following treatment with ARi−/+ and anti-IFN-γ antibodies. In vivo studies were performed in NCr Nude mice harboring subcutaneous PC tumors treated orally with Daro (50 mg/kg/bid) and Enza (30 mg/kg/bid) for 4 weeks.
In vivo studies were performed in NCr Nude mice harboring subcutaneous PC tumors treated orally with Daro (50 mg/kg/bid) and Enza (30 mg/kg/bid) for 4 weeks.

LNCaP cells = assay: Flow cytometry of HLA-E / PD-L1 surface expression on LNCaP; type: cell-based; settings: 48 h; for HLA-E surface expression / PD-L1 expression: Example 2, LNCaP; for HLA-E surface expression, mean fluorescence intensity (MFI): LNCaP, enza 15 μM, daro 20 μM
Method: as §2, §1, §3

Structure (SMILES) | NK-92 secretion of T cell chemokine CCL5 (NK-92 cells [1]) | NK-92 cell secretion of IFN-γ (NK-92 cells [1]) | NK-92 cell secretion of IL-10 (NK-92 cells [1]) | NK-92 cell secretion of granzyme B (NK-92 cells [1]) | expression of CD69 (NK-92 cells [2]) | expression of CD137 (NK-92 cells [2]) | HLA-E surface expression, mean fluorescence intensity (MFI) (22Rv1 cell line) | surface levels of HLA-E (22Rv1 cell line) | surface levels of PD-L1 (22Rv1 cell line) | NK cell infiltration in the tumor microenvironment [3] | HLA-E surface expression (LNCaP cells) | PD-L1 expression (LNCaP cells) | HLA-E surface expression, mean fluorescence intensity (MFI) (LNCaP cells)
CC(O)c1cc(C(=O)N[C@@H](C)Cn2ccc(-c3ccc(C#N)c(Cl)c3)n2)n[nH]1 (some centres unmarked) [darolutamide] | reduces | 45.6 pg/mL | 15.24 pg/mL | 1599 pg/mL | 88.63% | 64.87% | 30.5±2.69×10^3 | did not change significantly | did not change significantly | increased | 0.8% | increase | 39.47±3.39×10^3
CNC(=O)c1ccc(N2C(=S)N(c3ccc(C#N)c(C(F)(F)F)c3)C(=O)C2(C)C)cc1F [enzalutamide] | reduces | 48.88 pg/mL | 16.6 pg/mL | 1027 pg/mL | 87.4% | 61.54% | 41.14+7.6×10^3 | did not change significantly | did not change significantly | increased | 1.1% | increase | 37.38±1.7×10^3

Reference: patent publication US20240309090A1, “MODULATION OF ANDROGEN SIGNALING TO INNATE IMMUNE KILLING OF PROSTATE CANCER” (Brown University, priority 2023, published 2024)
